Assay results: publication PMC10173323 (ACS Omega, 2023)

Biological target: DNA gyrase (Escherichia coli, UniProt P0AES4+P0AES6)
Assay: DNA supercoiling gel assay
Assay type: biochemical

Chain of DNA gyrase (P0AES4 2-875, one chain of several): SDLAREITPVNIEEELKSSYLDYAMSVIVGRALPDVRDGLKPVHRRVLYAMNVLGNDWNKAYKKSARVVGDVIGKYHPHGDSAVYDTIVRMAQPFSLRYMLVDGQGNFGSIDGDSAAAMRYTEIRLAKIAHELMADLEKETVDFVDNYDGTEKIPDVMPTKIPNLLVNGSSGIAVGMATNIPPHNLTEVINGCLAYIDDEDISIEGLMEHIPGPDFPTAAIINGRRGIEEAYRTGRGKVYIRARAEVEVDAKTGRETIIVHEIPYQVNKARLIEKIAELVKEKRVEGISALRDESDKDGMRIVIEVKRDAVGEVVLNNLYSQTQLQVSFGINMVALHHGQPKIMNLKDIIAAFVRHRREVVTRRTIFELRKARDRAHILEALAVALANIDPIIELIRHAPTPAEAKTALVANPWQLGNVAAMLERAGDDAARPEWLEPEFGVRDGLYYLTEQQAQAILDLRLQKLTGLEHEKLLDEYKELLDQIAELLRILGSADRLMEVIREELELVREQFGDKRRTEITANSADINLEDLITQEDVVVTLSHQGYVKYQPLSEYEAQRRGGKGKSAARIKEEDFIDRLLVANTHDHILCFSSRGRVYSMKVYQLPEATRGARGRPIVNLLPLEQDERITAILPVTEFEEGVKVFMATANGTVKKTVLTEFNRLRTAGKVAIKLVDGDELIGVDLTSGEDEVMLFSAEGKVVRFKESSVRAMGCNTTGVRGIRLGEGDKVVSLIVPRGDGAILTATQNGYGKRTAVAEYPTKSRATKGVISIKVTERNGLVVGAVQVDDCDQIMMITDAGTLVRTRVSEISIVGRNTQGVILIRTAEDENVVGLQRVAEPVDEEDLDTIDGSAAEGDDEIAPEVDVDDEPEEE

Row | SMILES | IC50 [nM]
1 | O=c1c(-c2ccc(O)cc2)coc2cc(O)ccc12 [daidzein] | 165
2 | COc1c2occc2c(OC)c2c(=O)cc(C)oc12 [khellin] | 3160
